Here are results for five compounds from publication PMC8283790, “Inhibitory Effect of Puroindoline Peptides on Campylobacter jejuni Growth and Biofilm Formation” (Frontiers in Microbiology, 2021).

Values after ≈ are worked out from the molar mass of the structure shown. Like-named read-outs stand apart in the source and are kept apart here. Where a SMILES comes first, the peptide text is derived from it.

One series concerns MRSA. In kind it is cell-based, Staphylococcus aureus. The following applies: CLSI broth microdilution, MH broth, 37°C aerobic, 24 h, OD595. How it is done:
(§1) C. jejuni clinical strains 81-176 and F38011 were cultured every 24 to 48 h on Mueller-Hinton (MH) agar containing 5% citrated bovine blood (MH-blood agar) or in MH broth in a shaking orbital incubator with microaerobic conditions (5% O2, 10% CO2, 85% N2) at 37°C. The generic isolates of E. coli O157:H7, L. monocytogenes, and Salmonella enterica serovar Typhimurium (S. Typhimurium) were cultured on LB agar plates in an aerobic chamber at 37°C, and methicillin-resistant S. aureus (MRSA) were cultured on an MH-blood agar plate in an aerobic chamber at 37°C.
(§2) Two-fold serial dilutions were made. The bacterial cultures were grown overnight in MH broth under the appropriate conditions, pelleted by centrifugation, and suspended in MH broth at 5 × 10^6 CFU/mL. Ten microliters of bacterial suspension (∼5 × 10^4 bacteria) was used to inoculate every well except the media control wells in 96-well microtiter plate. The plate was incubated in an orbital shaker at 37°C in a microaerobic condition for 48 h for C. jejuni strains or in aerobic conditions for 24 h for other bacteria. After incubation, the optical density was determined using a 96-well plate reader (BioTek Instruments Inc., Winooski, VT, United States) at 595 nm (OD595). […] The dose-response curves were created by log-transforming the OD595 readings. […]
A general note: Dilution methods test growth across graded concentrations, often in twofold steps.

A further series has as its system L. monocytogenes. It counts as cell-based, Listeria monocytogenes. The following applies: CLSI broth microdilution, MH broth, 37°C aerobic, 24 h, OD595. How it is done: as §1, §2
The subject of a further series is S. Typhimurium. In kind it is cell-based, Salmonella enterica serovar Typhimurium. Particulars: CLSI broth microdilution, MH broth, 37°C aerobic, 24 h, OD595. On the procedure:
as §1, §2

Series [1] concerns C. jejuni strain 81-176. Particulars: C. jejuni 81-176, 48 h; for MIC: CLSI broth microdilution, MH broth, ~5 × 10^4 bacteria/well, 37°C microaerobic, OD595.
A further series concerns E. coli O157:H7. In kind it is cell-based, Escherichia coli. Particulars: CLSI broth microdilution, MH broth, 37°C aerobic, 24 h, OD595. On the procedure: as §1, §2
In the next series the test system is C. jejuni strain F38011. Put plainly: microbe, parasite or virus in culture. In kind it is cell-based, Campylobacter jejuni. Particulars: for MIC: CLSI broth microdilution, MH broth, ~5 × 10^4 bacteria/well, 37°C microaerobic.
Series [2] relates to sheep red blood cells (SRBCs). Description: Hemolysis assay. Particulars: ~10^8 cells/mL, 60 min, 37°C, absorbance 540 nm; 100% = 1% Triton X-100. In kind it is cell-based. How it is done:
The potential toxicity of the peptides was determined using a hemolysis assay. Briefly, SRBCs (Hardy Diagnostics, Santa Monica, CA, United States) were washed three times with 1× PBS. Aliquots containing approximately 10^8 cells/mL were incubated with different concentrations of the peptides for 60 min at 37°C in a 96-well tray. The plates were then centrifuged, and the absorbance of each supernatant was measured at 540 nm. Zero hemolysis (blank) and 100% hemolysis were determined in phosphate buffer and 1% Triton X-100, respectively.

In the next series the test system is red blood cells. Particulars: ref Capparelli et al. (2007); cited from earlier work. An excerpt:
(§3) The cytotoxicity and hemolytic activity of PinA has been addressed in this study using human epithelial INT 407 cells and SRBCs. INT 407 cells were chosen for this study as these cells grow rapidly and easy to maintain in culture media. INT 407 cells have been used extensively in C. jejuni research for several decades ([Negretti et al., 2019]). […] The first report on the cytotoxicity of puroindolines was from [Jing et al. (2003)], where th ...

Another series concerns blood. The following applies: blood hemolysis assay; ref Jing et al. (2003); cited from earlier work.
Text: as §3

In series [3] the test system is INT 407 cells. Put plainly: MTT cell viability assay. In kind it is cell-based, human. On the procedure: (§4) The toxicity of the puroindoline peptides was assessed using INT 407 epithelial cells (ATCC CCL-6) and SRBCs, as described below. The INT 407 cells (a derivative of HeLa cells) were cultured in Minimal Essential Medium (MEM) (Gibco, Grand Island, NY, United States) supplemented with 10% fetal bovine serum (FBS) and 1 mM sodium pyruvate at 37°C in humidified condition (5% CO2).
The viability of INT 407 cells was assessed by MTT assay according to the manufacturer’s recommendations (Roche Diagnostics, Mannheim, Germany). Briefly, INT 407 cells were seeded into a 96-well plate at a density of 2.5 × 10^4 cells/well in 200 μL of growth media (MEM supplemented by 10% FBS) and incubated for 24 h at 37°C under humidified conditions. Cells were rinsed twice with MEM without FBS, and different concentrations of peptides were added into the well. Triton X-100 was added as a positive control and growth medium only was added as a negative control. After treatment, the cells were incubated for different time points (3, 6, or 24 h) at 37°C in a humidified condition. At the end of each experiment, 100 μL of culture medium was removed into a new 96-well plate, and 25 μL of MTT stock solution was added into each well. The plates were incubated for 4 h at 37°C. Then, 100 μL of the solubilizing solution was added to each well, and the plate was incubated overnight at 37°C. After cooling, the plates were read at 570 nm (OD570) on a BioTek 96-well plate reader.
Background: Tetrazolium assays rely on reduction of a dye to a coloured formazan, in cell work by metabolically active cells.

Series [4] has as its system INT 407 cells. Description: Lactate dehydrogenase (LDH) cytotoxicity assay. In kind it is cell-based, human. Particulars: INT 407 cells, 3, 6 and 24 h, MEM without FBS; Triton X-100 at 0.1%. How it is done:
as §4
The cytotoxicity of puroindoline peptides on INT 407 cells was monitored using the lactate dehydrogenase (LDH) activity assay kit (Millipore Sigma, Danvers, MA, United States) following the manufacturer’s guidelines. LDH is released from damaged cells into the medium. Briefly, INT 407 cells were seeded into a 96 well plate at a density of 2.5 × 10^4 cells/well in 200 μL growth media (MEM supplemented by 10% FBS) and incubated for 24 h at 37°C in humidified (5% CO2) conditions. The next day, cells were rinsed twice with MEM without FBS, and different concentrations of peptides were added. Cells were incubated for 3 h, 6 h or 24 h at 37°C. As a positive control, 0.1% Triton X-100 was used. Media only was used as a negative control. In the presence of Triton X-100, cells release maximum LDH. After the appropriate incubation point, the tissue culture plate was centrifuged at 2000 rpm for 5 min. […] Absorbance was recorded at 450 nm (OD450) on a BioTek 96-well plate reader.

A further series deals with C. jejuni 81-176 biofilm. Description: Biofilm formation, crystal violet staining. In kind it is cell-based, Campylobacter jejuni. The following applies: inoculum OD540 0.1, 72 h, 37°C microaerobic, no agitation.
For series [5], the system named is C. jejuni strain 81-176. Put plainly: microbe, parasite or virus in culture.

`CSCC[C@H](NC(=O)[C@@H](N)[C@@H](C)O)C(=O)N[C@@H](CCCCN)C(=O)N[C@@H](CC(=O)O)C(=O)N[C@@H](Cc1ccccc1)C(=O)N1CCC[C@H]1C(=O)N[C@H](C(=O)N[C@H](C(=O)N[C@@H](Cc1c[nH]c2ccccc12)C(=O)N[C@@H](CCCNC(=N)N)C(=O)N[C@@H](Cc1c[nH]c2ccccc12)C(=O)NCC(=O)N[C@@H](CCCCN)C(=O)N[C@@H](Cc1c[nH]c2ccccc12)C(=O)NCC(=O)N[C@@H](CCCCN)C(=O)NCC(=O)NCC(=O)O)[C@@H](C)O)C(C)C` [PinA mutant] (H-TMKDFPVTWRWGKWGKGG-OH): the MIC was over 512 µg/mL with MRSA; over 512 µg/mL against L. monocytogenes; over 512 µg/mL with S. Typhimurium; over 512 µg/mL against C. jejuni strain 81-176 [1]; over 512 µg/mL against E. coli O157:H7; over 512 µg/mL against C. jejuni strain F38011 (48 h, OD595). Moreover, the “Concentration showing hemolysis of SRBCs” value in series [2] is at least 256 µg/mL.
Turning to `CSCC[C@H](NC(=O)[C@@H](N)[C@@H](C)O)C(=O)N[C@@H](CCCCN)C(=O)N[C@@H](CC(=O)O)C(=O)N[C@@H](Cc1ccccc1)C(=O)N1CCC[C@H]1C(=O)N[C@H](C(=O)N[C@H](C(=O)N[C@@H](Cc1c[nH]c2ccccc12)C(=O)N[C@@H](CCCNC(=N)N)C(=O)N[C@@H](Cc1c[nH]c2ccccc12)C(=O)N[C@@H](Cc1c[nH]c2ccccc12)C(=O)N[C@@H](CCCCN)C(=O)N[C@@H](Cc1c[nH]c2ccccc12)C(=O)N[C@@H](Cc1c[nH]c2ccccc12)C(=O)N[C@@H](CCCCN)C(=O)NCC(=O)NCC(=O)O)[C@@H](C)O)C(C)C` [PinA] (H-TMKDFPVTWRWWKWWKGG-OH), the “Concentration up to which no hemolytic activity was displayed” value in the series on red blood cells was 150 µg/mL. The “Concentration up to which no hemolytic activity was identified” value with blood is 1000 µg/mL. The “Concentration reducing cell viability (MTT, OD570)” value in the series on INT 407 cells [3] (INT 407 cells, 24 h) was found to be 256 µg/mL. In the series with INT 407 cells [4], the “Cytotoxicity (LDH release), in words” value is reported as “cytotoxic to INT 407 cells at higher concentrations”. Also, the “Concentration showing hemolysis of SRBCs” value in series [2] was at least 256 µg/mL.
For `CSCC[C@H](NC(=O)[C@@H](N)[C@@H](C)O)C(=O)N[C@@H](CCCCN)C(=O)N[C@@H](CC(=O)O)C(=O)N[C@@H](Cc1ccccc1)C(=O)N1CCC[C@H]1C(=O)N[C@H](C(=O)N[C@H](C(=O)N[C@@H](Cc1c[nH]c2ccccc12)C(=O)N1CCC[C@H]1C(=O)N[C@H](C(=O)NCC(=O)N[C@@H](Cc1c[nH]c2ccccc12)C(=O)N[C@@H](Cc1c[nH]c2ccccc12)C(=O)NCC(=O)NCC(=O)NCC(=O)O)[C@@H](C)O)[C@@H](C)O)C(C)C` [PinB mutant] (H-TMKDFPVTWPTGWWGGG-OH), the MIC in the series on MRSA was over 512 µg/mL; against L. monocytogenes it was over 512 µg/mL; against S. Typhimurium, over 512 µg/mL; against C. jejuni strain 81-176 [1], over 512 µg/mL; with E. coli O157:H7 it was over 512 µg/mL; against C. jejuni strain F38011 (48 h, OD595), over 512 µg/mL. Besides, the “Concentration showing hemolysis of SRBCs” value in series [2] is at least 256 µg/mL.
For the compound `CC[C@H]1OC(=O)[C@H](C)[C@@H](O[C@H]2C[C@@](C)(OC)[C@@H](O)[C@H](C)O2)[C@H](C)[C@@H](O[C@@H]2O[C@H](C)C[C@H](N(C)C)[C@H]2O)[C@](C)(O)C[C@@H](C)C(=O)[C@H](C)[C@@H](O)[C@]1(C)O` [erythromycin], the “Concentration inhibiting biofilm formation” value in the series on C. jejuni 81-176 biofilm was at least 0.25 µg/mL. In addition, the “IC10 (10% of maximal inhibitory concentration)” value in the series with C. jejuni strain 81-176 [1] (from slope of concentration-effect curve) is on record as 0.0254 µg/mL; with C. jejuni strain F38011 (from slope of concentration-effect curve, 48 h), 0.0249 µg/mL. The MBC is 0.125 µg/mL (≈ 0.17 µM) in the series with C. jejuni strain 81-176 [5] (Campylobacter jejuni, 81176) and 0.25 µg/mL (≈ 0.341 µM) in the series on C. jejuni strain F38011 (Campylobacter jejuni, wells spotted on MH agar, 24–48 h, no growth (>99.9% reduction)). In addition, the MIC against C. jejuni strain 81-176 [5] (Campylobacter jejuni, 81176, 48 h) is 0.125 µg/mL (≈ 0.17 µM); in the series with C. jejuni strain F38011 (Campylobacter jejuni, 48 h, OD595, read-out: MIC), 0.188 µg/mL (≈ 0.255 µM). The IC50 in the series on C. jejuni strain 81-176 [5] (Campylobacter jejuni, 81176, 48 h, read-out: IC50 (concentration at which 50% of bacteria is inhibited)) turned out to be 0.0415 µg/mL (≈ 0.0565 µM); in the series on C. jejuni strain F38011 (Campylobacter jejuni, read-out: IC50 (concentration at which 50% of bacteria is inhibited), broth microdilution, 48 h, ten concentration points, min. three biological replicates), 0.0405 µg/mL (≈ 0.0552 µM). In addition, the IC90 in the series on C. jejuni strain 81-176 [5] (Campylobacter jejuni, 81176, 48 h, read-out: IC90 (90% of maximal inhibitory concentration)) is 0.0677 µg/mL (≈ 0.0922 µM); with C. jejuni strain F38011 (Campylobacter jejuni, read-out: IC90 (90% of maximal inhibitory concentration), from slope of concentration-effect curve, 48 h) it was 0.0657 µg/mL (≈ 0.0895 µM).
On to Triton X-100 [reference compound], for which, in the series on INT 407 cells [3], the “Cell viability (MTT, OD570), in words” value is given as “very low absorbance at OD570”.
